Measured values reported in PMC11962866 (RSC Advances, 2025).
Converted amounts (≈) assume the structure as drawn.

Assays:
Strain 17# = experiment: Antifungal activity against fluconazole-resistant strain; type: cell-based; conditions: Candida albicans, read-out: MIC80 Strain 17#
C. alb (SC5314) = experiment: In vitro antifungal assay; type: cell-based; conditions: Candida albicans, SC5314, read-out: MIC80 C. alb (SC5314)
Strain 901 = experiment: Antifungal activity against fluconazole-resistant strain; type: cell-based; conditions: Candida albicans, 901, read-out: MIC80 Strain 901
C. neo = experiment: In vitro antifungal assay; type: cell-based; conditions: Cryptococcus neoformans, read-out: MIC80 C. neo
Strain 632 = experiment: Antifungal activity against fluconazole-resistant strain; type: cell-based; conditions: Candida albicans, 632, read-out: MIC80 Strain 632
Strain CaR = experiment: as above; type: cell-based; conditions: Candida albicans, read-out: MIC80 Strain CaR
MRC-5 cells = experiment: Cytotoxicity assay on normal cells; type: cell-based, human; conditions: Homo sapiens, MRC5, 72 h, read-out: IC50 on MRC-5 cell lines
Strain 904 = experiment: Antifungal activity against fluconazole-resistant strain; type: cell-based, Candida albicans; conditions: Candida albicans, 904, read-out: MIC80 Strain 904
[1] = test system: ERG11 and CDR1 of azole-resistant strain 904; experiment: RT-PCR expression of resistant genes ERG11 and CDR1; type: cell-based, Candida albicans; conditions: 0.25 μg mL^−1, strain 904, RT-PCR
[2] = test system: C. alb (5314),C. par, C. gla, C. kru and C. neo; experiment: In vitro antifungal assay, span over the five tested species; type: cell-based; conditions: range over C. alb (5314)

`O=C(Nc1ccc(F)cc1)c1ccc(COC(Cn2ccnc2)c2ccc(Cl)cc2Cl)cc1` (stereo not shown) [A02, 4-((1-(2,4-Dichlorophenyl)-2-(1H-imidazol-1-yl)ethoxy)methyl)-N-(4-fluorophenyl)benzamide] showed an MIC80 (Strain 17#) of 8 µg/mL (≈ 16.5 µM), an MIC80 (C. alb (SC5314)) of 0.125 µg/mL (≈ 0.258 µM) and an MIC80 (Strain 901) of 4 µg/mL (≈ 8.26 µM). For the same compound, the MIC80 (C. neo) was 0.5 µg/mL (≈ 1.03 µM), the MIC80 (Strain 632) was 4 µg/mL (≈ 8.26 µM) and the MIC80 (Strain CaR) was 8 µg/mL (≈ 16.5 µM). The IC50 (MRC-5 cells) was greater than 100 µM and the MIC80 (Strain 904) was 0.25 µg/mL (≈ 0.516 µM).

Compound `O=C(Nc1ccc(C(F)(F)F)cc1)c1ccc(COC(Cn2ccnc2)c2ccc(Cl)cc2Cl)cc1` (stereo not shown) [A06, 4-((1-(2,4-Dichlorophenyl)-2-(1H-imidazol-1-yl)ethoxy)methyl)-N-(4-(trifluoromethyl)phenyl)benzamide] has an MIC80 (Strain 17#) of 16 µg/mL (≈ 29.9 µM), an MIC80 (C. alb (SC5314)) of 0.06 µg/mL (≈ 0.112 µM) and an MIC80 (Strain 901) of 2 µg/mL (≈ 3.74 µM). It also gave an MIC80 (C. neo) of 0.125 µg/mL (≈ 0.234 µM), an MIC80 (Strain 632) of 2 µg/mL (≈ 3.74 µM) and an MIC80 (Strain CaR) of 2 µg/mL (≈ 3.74 µM). The IC50 (MRC-5 cells) was greater than 100 µM and the MIC80 (Strain 904) was 0.25 µg/mL (≈ 0.468 µM).

Compound `COc1ccc(NC(=O)c2ccc(COC(Cn3ccnc3)c3ccc(Cl)cc3Cl)cc2)cc1` (stereo not shown) [A07, 4-((1-(2,4-Dichlorophenyl)-2-(1H-imidazol-1-yl)ethoxy)methyl)-N-(4-methoxyphenyl)benzamide] has an MIC80 (Strain 17#) of 4 µg/mL (≈ 8.06 µM), an MIC80 (C. alb (SC5314)) of 0.06 µg/mL (≈ 0.121 µM) and an MIC80 (Strain 901) of 4 µg/mL (≈ 8.06 µM). For the same compound, the “Expression of ERG11 and CDR1” value [1] was “reduced to basic levels”, the MIC80 (C. neo) was 0.25 µg/mL (≈ 0.504 µM) and the MIC80 (Strain 632) was 4 µg/mL (≈ 8.06 µM). It also gave an MIC80 (Strain CaR) of 4 µg/mL (≈ 8.06 µM), an IC50 (MRC-5 cells) greater than 100 µM and an MIC80 (Strain 904) of 0.25 µg/mL (≈ 0.504 µM).

In the case of `O=C(Nc1ccc2cccnc2c1)c1ccc(COC(Cn2ccnc2)c2ccc(Cl)cc2Cl)cc1` (stereo not shown) [A12, 4-((1-(2,4-Dichlorophenyl)-2-(1H-imidazol-1-yl)ethoxy)methyl)-N-(quinolin-7-yl)benzamide], the MIC80 (Strain 17#) is reported as 8 µg/mL (≈ 15.5 µM), the “MIC80 / MIC span over the five tested fungi” value [2] is reported as 2 to 64 µg/mL and the MIC80 (C. alb (SC5314)) is reported as 8 µg/mL (≈ 15.5 µM). For the same compound, the MIC80 (Strain 901) was 8 µg/mL (≈ 15.5 µM), the MIC80 (C. neo) was 4 µg/mL (≈ 7.73 µM) and the MIC80 (Strain 632) was 8 µg/mL (≈ 15.5 µM). For the same compound, the MIC80 (Strain CaR) was 4 µg/mL (≈ 7.73 µM), the IC50 (MRC-5 cells) was greater than 100 µM and the MIC80 (Strain 904) was 2 µg/mL (≈ 3.87 µM).

`O=C(Nc1ccc2ccccc2c1)c1ccc(COC(Cn2ccnc2)c2ccc(Cl)cc2Cl)cc1` (stereo not shown) [A14, 4-((1-(2,4-Dichlorophenyl)-2-(1H-imidazol-1-yl)ethoxy)methyl)-N-(naphthalen-2-yl)benzamide] was tested, and the MIC80 (Strain 17#) was 64 µg/mL (≈ 124 µM), the “MIC80 / MIC span over the five tested fungi” value [2] was 2 to 64 µg/mL and the MIC80 (C. alb (SC5314)) was 32 µg/mL (≈ 62 µM). The MIC80 (Strain 901) was 16 µg/mL (≈ 31 µM), the MIC80 (C. neo) was 32 µg/mL (≈ 62 µM) and the MIC80 (Strain 632) was 16 µg/mL (≈ 31 µM). For the same compound, the MIC80 (Strain CaR) was 8 µg/mL (≈ 15.5 µM), the IC50 (MRC-5 cells) was greater than 100 µM and the MIC80 (Strain 904) was 16 µg/mL (≈ 31 µM).

Compound `O=C(Nc1ccc2[nH]ccc2c1)c1ccc(COC(Cn2ccnc2)c2ccc(Cl)cc2Cl)cc1` (stereo not shown) [A15, 4-((1-(2,4-Dichlorophenyl)-2-(1H-imidazol-1-yl)ethoxy)methyl)-N-(1H-indol-5-yl)benzamide] has an MIC80 (Strain 17#) greater than 128 µg/mL, an MIC80 (C. alb (SC5314)) of 128 µg/mL (≈ 253 µM) and an MIC80 (Strain 901) of 8 µg/mL (≈ 15.8 µM). The MIC80 (C. neo) was 128 µg/mL (≈ 253 µM), the MIC80 (Strain 632) was 128 µg/mL (≈ 253 µM) and the MIC80 (Strain CaR) was 128 µg/mL (≈ 253 µM). For the same compound, the IC50 (MRC-5 cells) was greater than 100 µM and the MIC80 (Strain 904) was 8 µg/mL (≈ 15.8 µM).

`O=C(Nc1cccc(Cl)c1)c1ccc(COC(Cn2ccnc2)c2ccc(Cl)cc2Cl)cc1` (stereo not shown) [A09, N-(3-Chlorophenyl)-4-((1-(2,4-dichlorophenyl)-2-(1H-imidazol-1-yl)ethoxy)methyl)benzamide] was tested, and the MIC80 (Strain 17#) was 8 µg/mL (≈ 16 µM), the MIC80 (C. alb (SC5314)) was 0.03 µg/mL (≈ 0.0599 µM) and the MIC80 (Strain 901) was 2 µg/mL (≈ 3.99 µM). For the same compound, the MIC80 (C. neo) was 0.125 µg/mL (≈ 0.25 µM), the MIC80 (Strain 632) was 4 µg/mL (≈ 7.99 µM) and the MIC80 (Strain CaR) was 8 µg/mL (≈ 16 µM). The IC50 (MRC-5 cells) was greater than 100 µM and the MIC80 (Strain 904) was 0.25 µg/mL (≈ 0.499 µM).

With `O=C(Nc1cccc2ccccc12)c1ccc(COC(Cn2ccnc2)c2ccc(Cl)cc2Cl)cc1` (stereo not shown) [A13, 4-((1-(2,4-Dichlorophenyl)-2-(1H-imidazol-1-yl)ethoxy)methyl)-N-(naphthalen-1-yl)benzamide] the MIC80 (Strain 17#) was 64 µg/mL (≈ 124 µM), the “MIC80 / MIC span over the five tested fungi” value [2] was 2 to 64 µg/mL and the MIC80 (C. alb (SC5314)) was 8 µg/mL (≈ 15.5 µM). It also gave an MIC80 (Strain 901) of 1 µg/mL (≈ 1.94 µM), an MIC80 (C. neo) of 64 µg/mL (≈ 124 µM) and an MIC80 (Strain 632) of 8 µg/mL (≈ 15.5 µM). The MIC80 (Strain CaR) was 128 µg/mL (≈ 248 µM), the IC50 (MRC-5 cells) was greater than 100 µM and the MIC80 (Strain 904) was 1 µg/mL (≈ 1.94 µM).

Compound `O=C(Nc1cccc(F)c1)c1ccc(COC(Cn2ccnc2)c2ccc(Cl)cc2Cl)cc1` (stereo not shown) [A08, 4-((1-(2,4-Dichlorophenyl)-2-(1H-imidazol-1-yl)ethoxy)methyl)-N-(3-fluorophenyl)benzamide] has an MIC80 (Strain 17#) of 16 µg/mL (≈ 33 µM), an MIC80 (C. alb (SC5314)) of 0.06 µg/mL (≈ 0.124 µM) and an MIC80 (Strain 901) of 2 µg/mL (≈ 4.13 µM). For the same compound, the MIC80 (C. neo) was 0.125 µg/mL (≈ 0.258 µM), the MIC80 (Strain 632) was 4 µg/mL (≈ 8.26 µM) and the MIC80 (Strain CaR) was 4 µg/mL (≈ 8.26 µM). The IC50 (MRC-5 cells) was greater than 100 µM and the MIC80 (Strain 904) was 0.25 µg/mL (≈ 0.516 µM).
